The values that follow come from patent US20250099952A1, “MICROFLUIDIC DEVICE AND USES THEREOF” (CASE WESTERN RESERVE UNIVERSITY, priority 2019, published 2025).

In one test the test system is RBCs from healthy donors. The test can be described thus: Occlusion Chip microfluidic assessment of RBC deformability (RBC Occlusion Index) after chemical treatment. It is filed as cell-based, human. The conditions noted are these: for RBC Occlusion Index (ROI), mean±SEM: directly suspended in PBS, N=4. How it is done:
Whole blood samples were centrifuged at 500×g for 5 min at 4° C., plasma was removed, and the RBCs were washed twice in PBS, and re-suspended at a 20% hematocrit value. The Occlusion Chip was placed on an Olympus IX83 inverted motorized microscope stage for high-resolution imaging. The RBC samples were perfused through the microchannel under constant pressure for 20 min (FIGS. 12A & B). Non-retained RBCs were rinsed away by injecting PBS into the microchannel under the same pressure. […] Phase contrast, bright field, and fluorescent images were recorded at 20× using the Olympus Cell Sense live imaging software (excitation/emission wavelength, 488/505-580 for Green Fluorescent Protein, GFP). Post processing of recorded images and cell counting were performed using Adobe Photoshop (San Jose, CA). Oxygen tension was controlled in hypoxia experiments using a custom designed gas exchange setup as described in Supplementary Materials. Scanning electron microscopy was performed on the micropillars and RBCs.
Glutaraldehyde, a non-specific protein cross-linker, and diamide, a thiol group oxidant inducing disulfide cross-linking of band 3, are used to stiffen RBCs in order to mimic impaired RBC deformability, seen in pathological conditions. Precisely controlled exposure of RBC to graded concentrations of glutaraldehyde or diamide was utilized to verify Occlusion Chip functionality. RBCs from healthy donors exposed to graded concentrations, 0.00% (as control), 0.02%, 0.04%, and 0.08% (w/v), of glutaraldehyde were mixed with untreated normal RBCs to achieve 1% treated cells and were suspended in PBS for microfluidic assessment. RBCs exposed to same graded concentrations of diamide were directly suspended in PBS for microfluidic assessment. […] The retained RBCs were fluorescently labeled with anti-glycophorin A (CD235a, Abcam, Cambridge, MA) antibodies. […] At the end of the test, numbers of occlusions induced by poorly-deformable RBCs within each micropillar array were quantified (FIGS. 7D&E). […] To assess the overall RBC deformability of specific samples, we assigned different weight to the occlusion events quantitated within different micropillar arrays, and defined a new parameter ‘RBC Occlusion Index’ (ROI) using the following equation,
Mercury is a toxic heavy metal that binds to RBC membranes with high affinity and results in RBC hemolysis. Mercuric ions induce membrane conformational changes and impair RBC deformability.

Test [1] relates to RBCs in whole venous blood. The test can be described thus: Fibrinogen-accelerated RBC sedimentation in whole blood. It is filed as cell-based, human. The conditions noted are these: fibrinogen stock 40 mg/ml mixed with whole blood 1:9 to 1:1 (v/v), monitored over 20 min, compared to PBS. How it is done:
The experiments are performed immediately after blood draw through […]. We examine the effect of additional fibrinogen on RBC sedimentation, which has been reported to have a marked correlation between the concentration of and the erythrocyte sedimentation rate.
Whole venous blood was drawn with anticoagulated EDTA into a 1.5 ml microcentrifuge tube. Fibrinogen stock solution with the concentration of 40 mg/ml (in PBS) was mixed with whole blood at ratios of 1:9, 1:4, 1:2, and 1:1 (v/v) and the final volume of the mixtures was adjusted to 500 μl. Control groups were mixtures of whole blood and PBS at the same volume ratios. The sedimentation of RBCs was monitored over a period of 20 minutes. […] In addition, fibrinogen mediated RBC sedimentation became stable when it approached 20 min, and no more noticeable difference was observed between blood samples with different concentrations of fibrinogen. Therefore, the 1:9 fibrinogen and whole blood mixture (4 mg/ml final fibrinogen concentration) was selected based on a cost-effective point of view, from which 150 μl plasma was collected for further processing.

mercuric ion: in the test with RBCs from healthy donors, the “effect on RBC deformability” value is “moderately reduces RBC deformability”.

For the compound `O=CCCCC=O` [glutaraldehyde], the “increase in total occlusion level compared to the control” value with RBCs from healthy donors (0.08% (w/v) glutaraldehyde) is given as “more than 16 fold”.

As for `CN(C)C(=O)/N=N/C(=O)N(C)C` [diamide], the “RBC Occlusion Index (ROI), mean±SEM” value amounted to 329.9±37.2 in the test with RBCs from healthy donors (RBCs exposed to 0.02% diamide), 459.8±71.6 in the test with RBCs from healthy donors (RBCs exposed to 0.04% diamide) and 645.1±87.6 with RBCs from healthy donors (RBCs exposed to 0.08% diamide). Moreover, the “effect on RBC stiffness and membrane morphology” value in the test on RBCs from healthy donors (diamide exposure, micropillar device 20 μm to 4 μm) is given as “induce structural stiffening of RBCs without interrupting the cell membrane morphology”.

As to fibrinogen, the “RBC sedimentation (visual, words)” value in test [1] is “significantly accelerated the sedimentation of RBCs compared to PBS”.
